These are literature values, as cited in patent publication US8815929B2, “Method and therapeutic/cosmetic topical compositions for the treatment of rosacea and skin erythema using α1-adrenoceptor agonists” (Allergan, Inc., priority 2004, dated 2014).

Where a name gives a salt, the structure may show the parent alone.

For data set [1] the following is noted: rabbits; injection subcutaneously.
The conditions of data set [2]: used intranasally and ophthalmically for decades.
For data set [3] the following is noted: dog, cat, rabbit or mouse; dosages close to those used in man; manufacturers' report.
For data set [4] the following is noted: retrospective study in man.

`Cc1cc(C(C)(C)C)c(O)c(C)c1CC1=NCCN1` [oxymetazoline, 2-(3-Hydroxy-2,6-dimethyl-4-t-butylbenzyl)-2-imidazoline hydrochloride]: in data set [1], the “drug related abnormalities or effects on the offspring” value was “no drug related abnormalities or effects on the offspring were found”. The systemic side effects entry in data set [2] is “has not been reported to effect any systemic side effects”. Moreover, the “organ damage or general toxicity” value in data set [3] is given as “no significant organ damage or general toxicity”. For the same compound, the “association between the drug and congenital disorders” value in data set [4] is on record as “no association was found”.
